“Also recorded” adds a separate entry of the source. Non-standard residues stand in square brackets, D forms with d. Residues, ends and D or L forms follow the SMILES beside them. *: point of attachment. Phenylacetyl(2,3,4,5,6-F5) = O=C(Cc1c(F)c(F)c(F)c(F)c1F)*; Phe(F5) = N[C@@H](Cc1c(F)c(F)c(F)c(F)c1F)C(=O)O; hArg = N=C(N)NCCCC[C@H](N)C(=O)O; 12Ado = NCCCCCCCCCCCC(=O)O; Nle = CCCC[C@H](N)C(=O)O; Orn = NCCC[C@H](N)C(=O)O; Abu = CC[C@H](N)C(=O)O; PhAc = O=C(Cc1ccccc1)*
Columns and labels:
PANC-1 cells = test: In vitro cell viability, pancreatic cancer PANC-1; type: cell-based, human; conditions: 5 μM, 72 h; relative to MIA602 = 1; Table 3A
Method: The inhibitory effects of the various synthesized GHRH antagonists were tested in cell proliferation assays in various human cancer cell lines including stomach cancer (KATOIII, N87), colon cancer (HT-29), urothelial cancer (J82, RT4), pancreatic cancer (PANC-1, CFPAC-1), prostatic cancer (PC3), breast cancer (MX-1, HCC1806), ovarian cancer (SK-OV-3, OVCAR-3) and lung cancer (HCC827, H460).
(§1) Cell culture. Human cancer cell lines including pancreatic (PANC-1 and CFPAC-1), lung (HCC827 and H460), stomach (NCI-N87 and KATOIII), urothelial (J82, RT4), prostatic (PC3), breast (MX-1 and HCC 1806), colorectal (HT-29), and ovarian (SK-OV-3 and OVCAR-3) were obtained from the American Type Culture Collection (ATCC) and cultured at 37° C. in a humidified 95% air/5% CO2 atmosphere in the medium recommended by ATCC.
In vitro cell viability. Cell viability was analyzed as follows: cancer cells including pancreatic (PANC-1 and CFPAC-1), lung (HCC827 and H460), stomach (NCI-N87 and KATOIII), urothelial (J82, RT4), prostatic (PC3) and breast (MX-1 and HCC 1806), colorectal (HT-29) and ovarian (SK-OV-3 and OVCAR-3) were grown on 96 well plates to ˜60% confluence, the cells were starved for 24 h in culture medium containing 0.5% FBS. Cells were then treated with GHRH antagonists MIA602 AVR compounds at concentrations of 1, 2.5 or 5 μM, or vehicle (0.1% DMSO) in quintuplicates for 72 hours. The medium was replaced every 48 hours. Cell viability was measured using CellTiter 96 aqueous one solution kit (Promega). Inhibitory effects of tested AVR compounds in comparison to that of MIA602 are presented as inhibitory potency.
Inhibitory effects of selected AVR compounds in comparison to that of MIA602 are presented as inhibitory potency (e.g., percentage of inhibition). […] The cell lines tested including lung cancer HCC827 (FIG. 2A), pancreatic cancer CFPAC-1 (FIG. 2B), stomach cancer N87 (FIG. 2C), colon cancer HT-29 (FIG. 2D), breast cancers MX-1 and HCC1806 (FIGS. 2E, F). Based on the results of cell proliferation assay after cancer cells were treated with antagonist at concentration of 5 μM for 72H, the relative inhibitory potency of AVR antagonists in comparison to MIA-602 is summarized in Table 3 A and B. Over 60 AVR compounds were tested in 12 cancer cell lines.

NCI-N87 xenograft = test: Xenograft tumor growth in nude mice, stomach cancer N87; type: in vivo; conditions: Panel D, 10 weeks
Method: (§2) The peptides' activity was compared with GHRH antagonist MIA-602. All statistical analyzses were performed from comparing GHRA antagonists to non-treated tumor (control).
(§3) Peptides and chemicals. GHRH antagonists MIA-602 and AVR-GHRH antagonists (see Table 2 above) were synthesized by solid phase methods and purified by HPLC. The peptides were dissolved in DMSO and further diluted in 10% 1, 2-propanediol. The final concentration of peptides was 50 µg/ml in 10% 1, 2-propanediol containing 0.1% of DMSO.
as §1, with “(NCI-N87), prostate” for “(NCI-N87 and KATOIII), urothelial (J82, RT4), prostatic”, “brest” for “breast”, “HCC-1806),” for “HCC 1806),”
Xenograft models of human cancers in nude mice. Female athymic (NCr nu/nu) nude mice, 5-to 6-weeks-old, obtained from the Envigo labs (Tampa, FL), were housed in laminar airflow cabinets under pathogen-free conditions with a 12-h light/12-h dark schedule, and were fed autoclaved standard chow and water. To generate mice with xenografted tumors, tumor xenografts were initiated by subcutaneous (s.c.) injection of […] human cancer cells into female nude mice. After about 4 weeks the resulting tumors were dissected and collected after removing necrosis tissues. The tumors were then cut into particles with size of ˜3 mm3 and transplanted s.c. by trocar needle into experimental animals. When tumors grew to the size of 50-60 mm3 (by volume), […] of 5 μg of GHRH antagonists MIA-602 or AVR-compounds (2-10 μg as indicated), or vehicle solutions (0.1% DMSO in 10% 1, 2-propanediol) respectively. Tumor sizes were measured weekly.
Statistical analysis. One-way ANOVA followed by Bonferroni comparison were performed. Data are expressed as Mean±SEM. To determine statistical significance between animal groups, two-tailed Student's t-test was conducted. Differences were considered significant when p<0.05.
Results. […] FIG. 1A-N represents in vivo inhibition of tumor growth during the treatment with GHRH antagonist MIA-602 and selected AVR antagonists in nude mice xenografted with various human tumors including pancreatic cancer PANC-1 (FIG. 1A) and CFPAC-1 (FIG. 1I); lung cancer HCC827 (FIGS. 1B, C) and H460 (FIG. 1H); stomach cancer N87 (FIGS. 1D-F); colon cancer HT-29 (FIG. 1G); breast cancer MX-1 and HCC-1806 (FIGS. 1J, K); ovarian cancer SK-OV-3 and OVACAR-3 (FIGS. 1L, M) and prostate cancer PC3 (FIG. 1N). See also Table 5.

HCC827 cells = test: In vitro cell viability, lung cancer HCC827; type: cell-based, human; conditions: 5 μM, 72 h; for Relative inhibitory potency, Lung HCC827: relative to MIA602 = 1, Table 3A
Procedure, shortened: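 Cells grown to ~60% confluence and serum-starved 24 h in 0.5% FBS, then exposed to antagonists at 5 μM (some at 2 μM) for 72 h in quintuplicate, with medium replaced every 48 h. Viability read by CellTiter 96 AQueous One (MTS). Values are inhibition relative to MIA602.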

[1] = system: PAK1-STAT3/NF-κB in gastric cancer cells; conditions: Gan et al. 2016; cited from earlier work
OVCAR-3 xenograft = test: Xenograft tumor growth in nude mice, ovarian cancer OVCAR-3; type: in vivo; conditions: Panel M, 9 weeks, 5 μg/day s.c.
Method: as §2, §3
as §1, with “(NCI-N87), prostate” for “(NCI-N87 and KATOIII), urothelial (J82, RT4), prostatic”, “brest” for “breast”, “HCC-1806),” for “HCC 1806),”
Xenograft models of human cancers in nude mice. Female athymic (NCr nu/nu) nude mice, 5-to 6-weeks-old, obtained from the Envigo labs (Tampa, FL), were housed in laminar airflow cabinets under pathogen-free conditions with a 12-h light/12-h dark schedule, and were fed autoclaved standard chow and water. To generate mice with xenografted tumors, tumor xenografts were initiated by subcutaneous (s.c.) injection of […] human cancer cells into female nude mice. After about 4 weeks the resulting tumors were dissected and collected after removing necrosis tissues. The tumors were then cut into particles with size of ˜3 mm3 and transplanted s.c. by trocar needle into experimental animals. When tumors grew to the size of 50-60 mm3 (by volume), mice were randomized into groups and treated daily for 4-8 weeks by subcutaneous administration of 5 μg of GHRH antagonists MIA-602 or AVR-compounds (2-10 μg as indicated), or vehicle solutions (0.1% DMSO in 10% 1, 2-propanediol) respectively. Tumor sizes were measured weekly.
Statistical analysis. One-way ANOVA followed by Bonferroni comparison were performed. Data are expressed as Mean±SEM. […]

## CCCC[C@H](NC(=O)[C@@H](NC(=O)[C@H](CC(=O)O)NC(=O)[C@H](CCC(N)=O)NC(=O)[C@H](CC(C)C)NC(=O)[C@H](CC(C)C)NC(=O)[C@H](CCCCN)NC(=O)[C@H](CCCNC(=N)N)NC(=O)[C@H](C)NC(=O)[C@H](CO)NC(=O)[C@H](CC(C)C)NC(=O)[C@H](CCC(N)=O)NC(=O)[C@H](CC)NC(=O)[C@H](CC(C)C)NC(=O)[C@@H](NC(=O)[C@H](CCCCN)NC(=O)[C@H](CCCNC(=N)N)NC(=O)[C@H](Cc1ccc(OC)cc1)NC(=O)[C@H](CCCCNC(=N)N)NC(=O)[C@H](C)NC(=O)[C@@H](NC(=O)[C@H](Cc1c(F)c(F)c(F)c(F)c1F)NC(=O)[C@@H](NC(=O)[C@H](C)NC(=O)[C@H](CC(=O)O)NC(=O)[C@@H](CCCNC(=N)N)NC(=O)[C@H](Cc1ccc(O)cc1)NC(=O)CCCCCCCCCCCNC(=O)Cc1c(F)c(F)c(F)c(F)c1F)[C@@H](C)CC)[C@@H](C)O)C(C)C)[C@@H](C)CC)C(=O)N[C@H](CCCNC(=N)N)C(=O)N[C@@H](CCCCNC(=N)N)C(=O)NC [AVR-235] ({Phenylacetyl(2,3,4,5,6-F5)-12Ado}-Y[dR]DAI[Phe(F5)]TA[hArg]Y(Me)RKVL[Abu]QLSARKLLQDI[Nle][dR][hArg]-NHMe)
PANC-1 cells
  Relative inhibitory potency, Pancreatic Panc-1: 1.139
NCI-N87 xenograft; 2 μg/day s.c.
  Tumor Growth %: 558.60%
HCC827 cells
  Relative inhibitory potency, Lung HCC827: 1.506

## CCCC[C@H](NC(=O)[C@@H](NC(=O)[C@H](CC(=O)O)NC(=O)[C@H](CCC(N)=O)NC(=O)[C@H](CC(C)C)NC(=O)[C@H](CC(C)C)NC(=O)[C@H](CCCN)NC(=O)[C@H](Cc1c[nH]cn1)NC(=O)[C@H](C)NC(=O)[C@H](CO)NC(=O)[C@H](CC(C)C)NC(=O)[C@H](CCC(N)=O)NC(=O)[C@H](CC)NC(=O)[C@H](CC(C)C)NC(=O)[C@@H](NC(=O)[C@H](CCCN)NC(=O)[C@H](Cc1c[nH]cn1)NC(=O)[C@H](Cc1ccc(OC)cc1)NC(=O)[C@H](CCCCNC(=N)N)NC(=O)[C@H](C)NC(=O)[C@@H](NC(=O)[C@H](Cc1c(F)c(F)c(F)c(F)c1F)NC(=O)[C@@H](NC(=O)[C@H](C)NC(=O)[C@H](CC(=O)O)NC(=O)[C@@H](CCCNC(=N)N)NC(=O)[C@H](Cc1ccc(O)cc1)NC(=O)CCCCCCCCCCCNC(=O)Cc1ccccc1)[C@@H](C)CC)[C@@H](C)O)C(C)C)[C@@H](C)CC)C(=O)N[C@H](CCCNC(=N)N)C(=O)N[C@@H](CCCCNC(=N)N)C(N)=O [MIA-602, PhAC-Ada, Tyr D-Arg, Asp, Ala, Ile, 5FPhe, Thr, Ala, Har, Tyr(Me), His, Orn, Val, Leu, Abu, Gin, Leu, Ser, Ala, His, Orn, Leu, Leu, Gin, Asp, Ile, Nle, D-Arg, Har NH2, reference compound] ({PhAc-12Ado}-Y[dR]DAI[Phe(F5)]TA[hArg]Y(Me)H[Orn]VL[Abu]QLSAH[Orn]LLQDI[Nle][dR][hArg]-NH2)
[1]
  Signaling pathways in gastric cancer cells: downregulates p21 activated kinase and STAT3 and NFκB; also recorded: inhibits signaling pathways, including PAK1-STAT3/NF-κB
OVCAR-3 xenograft
  Tumor Growth %: 267.2%
PANC-1 cells
  Relative inhibitory potency, Pancreatic Panc-1: 1
NCI-N87 xenograft; 2 μg/day s.c.
  Tumor Growth %: 1065.00%
NCI-N87 xenograft; 2 μg/day s.c., vs control
  % Inhibition: 13.0%
NCI-N87 xenograft; 5 μg/day s.c.
  Tumor Growth %: 767.00%
HCC827 cells; Table 3B
  In vitro relative inhibitory potency in comparison to MIA-602, HCC827: 1
HCC827 cells
  Relative inhibitory potency, Lung HCC827: 1
